According to US7050620B2, “Method of assaying shape and structural features in cells” (priority 2001, dated 2006):

How the values were obtained:
IAR20 PC1 cells [1] = test: Factor-based classification of cell shape phenotype from interference contours (predicted time in culture); design: species or system rat
Protocol: Cell lines and interference preparations. Equations were developed to define changes in the signature-type for two epithelial cell lines that underwent transformation over a prolonged time of […] culture. […] IAR20 PC1 was a clonal derivative of a line called IAR20, which was cultured from liver cells of a BD-VI rat. […] Liver cells were grown in William's E medium supplemented with 10% fetal bovine serum, whereas the tracheal cells were grown in Waymouth's medium containing fetal bovine serum plus 0.1 μg/ml insulin and 0.1 μg /ml hydrocortisone. The cells were maintained and subcultured as described elsewhere (1,3). For experiments with insulin supplementation, insulin concentrations were raised to 1 and 10 μg/ml and maintained for two passages before the cells were used.
Information about shape features was derived from interference images. These were generated by culturing cells on anodized tantalum substrates, and then imaging them in reflected light. Cells were plated on substrates in replicate dishes, left overnight, and then exposed to experimental agents or to the solvent vehicle alone. After incubation with the agents for 2–5 h, samples were recovered, fixed in buffered 3% glutaraldehyde (pH 7.3), and air-dried. Randomly selected cells were imaged in a Zeiss Universal microscope, and the outlines of their three lowermost interference contours were digitized. […] Each experimental treatment was represented by a total of 50 cells.
Classification procedures. The classification methods employed a subset of the contour shape variables. Each 50-cell sample was submitted to multiple linear regression analysis for classification alongside a group of cells representing normal and transformed reference samples. The latter were obtained from the lines that underwent transformation as described above. Because the signature-type value was assigned relative to these samples, the solutions were in units of predicted time in culture. After obtaining such a value for each cell in an experiment, the differences in mean predicted times for treated and control cells were calculated. The sum of the squared standard deviations, divided by the number of observations, n, was used to compute the confidence limits of the mean: (s1)^2/n+(s2)^2/n Where s was the standard deviation for each sample. Dividing the difference between the means by the square root of the above expression yields a value that can be related to the degree of confidence, 1-α. […] This value was equivalent to a probability that the two samples differed of P≦0.02.
Again, classification of samples from experiments employed multiple linear regression methods, based on factors scores rather than on contour shape variables. Factors were generated by combining into a single database, the contour shape variables from highly malignant epithelial cells and precancerous lines that change progressively, eventually become neoplastic. […] Principal components were extracted and transformed by a pattern of rotation to produce latent factors, which described variances that had thereby been rendered orthogonal (8). Factor scores for each cell represented in the database to be estimated. These factor scores from known IAR20 PC1 or 1000 W cells are used as a reference to classify data from short-term experiments on the respective samples. The factors used in classification were selected by the SAS REG procedure (8). […] Predicted time-in-culture values were obtained by submitting the experimental cells to analysis, as described above for simple variables. The statistical significance of differences among sample means within each experiment was determined by the Duncan multiple range test.

IAR20 PC1 cells [2] = test: Uptake of fluid-phase marker horseradish peroxidase; format: cell-based, rat; conditions: monensin treatment

CC[C@@]1([C@@H]2O[C@@H]([C@H]3O[C@@](O)(CO)[C@H](C)C[C@@H]3C)C[C@@H]2C)CC[C@H]([C@]2(C)CC[C@]3(C[C@H](O)[C@@H](C)[C@@H]([C@@H](C)[C@@H](OC)[C@H](C)C(=O)O)O3)O2)O1 [monensin]
average predicted time (factor-based classification) (IAR20 PC1 cells [1]; 24 μM monensin alone or together with 50 μM ouabain, control 318 days): 344 days | factor #4 value (filopodia / sharp projections at cell edge) (IAR20 PC1 cells [1]; versus control): change in factor #4 | factor #8 value (sharp features in the second contour) (IAR20 PC1 cells [1]; versus control, monensin 24 μM): affected | time after initial exposure by which horseradish peroxidase uptake was inhibited (IAR20 PC1 cells [2]): ≤ 30 min
